Source: patent publication US20140228418A1, “COMBINATION THERAPY OF HSP90 INHIBITORY COMPOUNDS WITH MEK INHIBITORS” (Synta Pharmaceuticals Corp., priority 2011, published 2014)
pIC50: −log10 of the molar value.

Tests used:
Assay type in all cases: cell-based, Human
ERK = test: Western blotting of MAPK pathway analytes in A375 cells treated for 24 hr; settings: A375 melanoma cells with constitutively activated MAPK, FIG. 1
Experimental: (§1) Human H1666 NSCLC (BRAFG466V mutant) and A375 melanoma cells (BRAFV600E mutant) were purchased from the American Type Culture Collection (Manassas, Va.) and grown in RPMI or DMEM, respectively, in the presence of fetal bovine serum (10%), 2 mM L-glutamine and antibiotics (100 IU/ml penicillin and 100 μg/ml streptomycin) purchased from Sigma Aldrich. Cells were maintained at 37° C., 5% CO2 atmosphere.
Cells, treated with compound for 24 hr, were lysed in RIPA buffer (CST, Danvers, Mass., USA) on ice and clarified by centrifugation. Equal amounts of proteins were resolved by SDS-PAGE and immunoblotted with indicated antibodies. The antigen-antibody complex was visualized and quantitated using an Odyssey system (LI-COR, Lincoln, Nebr., USA).
The mitogen-activated protein kinase (MAPK) signal transduction cascade is dysregulated in a majority of human tumors.

[1] = system: A375 melanoma cells (BRAFV600E mutant); test: Cell viability (Cell Titer-Glo) in A375 melanoma cells, single agents and matrix combination; settings: for cells killed / concentration that killed 100% of the cells: 72 hr; for cells killed: FIG. 3; for concentration that killed 100% of the cells: FIG. 2; for pIC50: Homo sapiens, A-375, 72 hr, FIG. 2, read-out: concentration that killed 50% of the cells
Experimental: as §1
(§2) Cell viability was measured using the Cell Titer-Glo assay (Promega). In brief, cells were plated in 96-well plates in triplicate at optimal seeding density (determined empirically for each cell line) and incubated at 37° C., 5% CO2 atmosphere for 24 hr prior to the addition of drug or vehicle (0.3% DMSO) to the culture medium. At the end of the assay, Cell Titer-Glow was added to the wells per manufactures recommendation, shaken for two minutes and incubated for 10 minutes at room temperature. Luminescence (0.1 sec) was measured with a Victor II microplate reader (Perkin Elmer) and the resulting data were used to calculate cell viability, normalized to vehicle control.
Matrix style combinations between AZD6244 and Ganetespib were performed in A375 melanoma cells. Cells were exposed to AZD6244, ganetespib or the combination of the two concurrently for 72 hr and viability was assessed.
Combination Index (CI) was then determined using the median effect analysis software CalcuSyn 2.0 (CalcuSyn, Inc.). A Combination Index greater than one, equal to one or less than one indicates antagonism, additivity and synergism, respectively.

[2] = system: H1666 NSCLC (BRAFG466V mutant); test: Cell viability (Cell Titer-Glo) in H1666 NSCLC cells, single agents and combination; settings: FIG. 5
Experimental: as §1, §2
The combination of ganetespib and AZD6244 was performed in the NSCLC cell line H1666. Similar to A375 cells, the combination of both compounds yielded greater anticancer activity than monotherapy. […]

| SMILES | disruption of activation of the MEK substrate ERK / abrogation of ERK activity (western blot) (ERK) | cells killed ([1]; AZD6244 24 nM alone) [%] | concentration that killed 100% of the cells [1] [nM] | pIC50 [1] | cells killed ([2]; AZD6244 118 nM alone) | cells killed ([1]; ganetespib 30 nM alone) [%] | cells killed ([2]; ganetespib 68 nM alone) |
| --- | --- | --- | --- | --- | --- | --- | --- |
| Cn1cnc2c(F)c(Nc3ccc(Br)cc3Cl)c(C(=O)NOCCO)cc21 [AZD6244, 6-(4-bromo-2-chloro-phenylamino)-7-fluoro-3-methyl-3H-benzoimidazole-5-carboxylic acid (2-hydroxy-ethoxy)-amide] | highly effective | 10 | 228 | 7.19 | approximately 50% |  |  |
| CC(C)c1cc(-c2nnc(O)n2-c2ccc3c(ccn3C)c2)c(O)cc1O [ganetespib, 3-(2,4-dihydroxy-5-isopropyl-phenyl)-4-(1-methyl-indol-5-yl)-5-hydroxy-[1,2,4] triazole] | highly effective |  | 35 | 7.82 |  | 20 | approximately 50% |
